Laboratory results as given in paper PMC9986306, “Beyond CBD: Inhibitory effects of lesser studied phytocannabinoids on human voltage-gated sodium channels” (Frontiers in Physiology, 2023).
Marks after values point to notes of the source that are not given here.

What was measured:
[1] = target: T1, human NaV1.1 channel (SCN1A, HEK293T cells) (Homo sapiens, UniProt P35498); experiment: Planar patch-clamp, inhibition of peak sodium current (IC50 protocol); format: cell-based; conditions: NaV1.1; 0.1–100 μM, no maximal inhibition at 100 µM
T1 construct: expressed in transfected cells
Experimental: (§1) HEK293T cells stably expressing SCN1A or SCN2A and CHO cells stably expressing SCN8A or SCN9A were maintained as previously described ([Richards et al., 2018]; [Milligan et al., 2022]).
(§2) Patch-clamp recordings were made using a Patchliner® (Nanion Technologies, Munich, Germany) in the whole-cell configuration as previously described ([Richards et al., 2018]; [Milligan et al., 2022]). Briefly, cells were prepared in suspension at a density of 1 × 10^6-5 × 10^7 cells/mL. The external recording solution comprised (in mM): 140 NaCl, 4 KCl, 1 MgCl2, 2 CaCl2, 5 D-glucose, 10 HEPES, pH 7.4 with NaOH, ∼295 mOsm. The internal recording solution comprised (in mM): 50 CsCl, 60 CsF, 10 NaCl, 20 EGTA, 10 HEPES, pH 7.2 with CsOH, ∼285 mOsm. Medium single-hole planar NPC-16 chips with an average resistance of ∼2.5 MΩ were used. Chip and whole-cell capacitance were fully compensated, and 50% series resistance compensation applied. Recordings were acquired at 50 kHz with the low pass filter set to 10 kHz in PATCHMASTER (HEKA Instruments, NY, United States) and performed at 27°C. Offline analysis was performed using Microsoft Excel, MatLab R2019a (MathWorks) and GraphPad Prism 8 (Molecular Devices).
(§3) To determine half-maximal inhibitory concentrations (IC50), cells were held at −80 mV, stepped to −120 mV for 200 ms followed by 50 ms test depolarization to 0 mV every 2 s for 30 s in the presence of vehicle control (DMSO). The cells were then exposed to an individual phytocannabinoid (CBD, CBGA, CBDVA, CBG, CBCA or CBC) at concentrations between 0.1 and 100 μM, sequentially for 5 min. Currents for individual cells were averaged over 24 s periods directly before application and following a 5 min exposure of compound. Leak subtraction was applied before normalization of current amplitude. Normalized mean data were fit to the Hill equation.

[2] = target: T2, human NaV1.2 channel (SCN2A, HEK293T cells) (Homo sapiens, UniProt Q99250); experiment: as above; format: cell-based; conditions: for Effect on peak sodium current (in words): NaV1.2, 0.1–100 μM, no maximal inhibition at 100 µM
T2 construct: expressed in transfected cells
Experimental: as §1, §2, §3

[3] = target: T3, human NaV1.6 channel (SCN8A, CHO cells) (Homo sapiens, UniProt Q9UQD0); experiment: as above; format: cell-based; conditions: for Effect on peak sodium current (in words): NaV1.6, 0.1–100 μM, no maximal inhibition at 100 µM
T3 construct: expressed in transfected cells
Experimental: as §1, §2, §3

[4] = target: T4, human NaV1.7 channel (SCN9A, CHO cells) (Homo sapiens, UniProt Q15858); experiment: as above; format: cell-based; conditions: for Effect on peak sodium current (in words): NaV1.7, 0.1–100 μM, no maximal inhibition at 100 µM
T4 construct: expressed in transfected cells
Experimental: as §1, §2, §3

[5] = target: T1, human NaV1.1 channel (SCN1A, HEK293T cells); experiment: Planar patch-clamp, biophysical properties (activation, SSFI, recovery from SSFI); format: cell-based; conditions: change vs vehicle DMSO at IC50 concentration (CBD 18.5 μM, CBGA 13.6 μM, CBDVA 50 μM)
Experimental: as §1, §2
(§4) Voltage protocols were used, as previously described ([Richards et al., 2018]). Briefly, to study the voltage-dependence of activation, cells were held at −120 mV and depolarized to test potentials, in 5 mV increments, between −120 mV and +50 mV for 100 ms. To study steady-state fast inactivation, cells were held at conditioning pre-pulse potentials ranging from −120 mV to +30 mV in 5 mV increments from a holding potential of −120 mV and a test pulse at 5 mV for 20 ms. Recovery from fast inactivation was studied by pre-pulsing the cells to 0 mV from a holding potential of −120 mV for 50 ms, to fully inactivate channels. The voltage was then stepped back to the holding potential for variable interpulse intervals (ipi from 0 to 39 ms in 3 ms increments). To test channel availability, the voltage was stepped to 0 mV for 50 ms.
(§5) To examine the voltage-dependence of activation, normalized current-voltage (I-V) relationships were converted to conductance (G) using the following equation: G = I/(V−V r ) where Vr is the reversal potential for Na^+. The voltage-dependence of conductance and availability were normalized and fitted to a Boltzmann equation: G = 1/(1 + exp [(V−V 0.5)/a]), where a is the slope of the half-maximum, V is the potential of the given pulse, and V 0.5 is the potential for the half-maximal activation/inactivation. The time course of inactivation was fitted to a single exponential function I/Imax = I0+A*exp (-t-t0/τ)+C, where I0 is the non-inactivating component, Imax is the peak current, t is time, and A is the component for the time constant τ. Time constants were plotted against voltage and the data fitted with a decaying exponential equation Y = span*exp (−K*x)+plateau, where span is the starting point of the curve, K is the decay factor, plateau is the value the curve decays to, and x is time. To measure recovery from inactivation, normalized currents were plotted against ipi and data fitted with equation I/I max = 1-exp/(rc + x), where I max is maximal current; rc recovery rate constant; x is time. Peak current (I) was plotted as fractional recovery against the recovery period by normalizing to the maximum current (Imax) during the conditioning potentials.

[6] = target: T2, human NaV1.2 channel (SCN2A, HEK293T cells); experiment: as above; format: cell-based; conditions: change vs vehicle DMSO at IC50 concentration (CBD 18.4 μM, CBGA 14.7 μM, CBDVA 60 μM)
Experimental: as §1, §2, §4, §5

[7] = target: T3, human NaV1.6 channel (SCN8A, CHO cells); experiment: as above; format: cell-based; conditions: change vs vehicle DMSO at IC50 concentration (CBD 16.6 μM, CBGA 12.0 μM, CBDVA 24.1 μM)
Experimental: as §1, §2, §4, §5

[8] = target: T4, human NaV1.7 channel (SCN9A, CHO cells); experiment: as above; format: cell-based; conditions: change vs vehicle DMSO at IC50 concentration (CBD 11.9 μM, CBGA 16.4 μM, CBDVA 60 μM)
Experimental: as §1, §2, §4, §5

[9] = parameters: method as in Anderson et al., 2019b; conditions: CBDVA; ref Anderson et al., 2019b; cited from earlier work
[10] = system: Scn1a+/− mouse model of DS; parameters: method as in Anderson et al., 2021a; Anderson et al., 2021b; conditions: Scn1a+/− mice, ref Anderson et al., 2021a, 2021b; cited from earlier work
[11] = system: electrically induced seizure model; parameters: method as in Davis and Hatoum, 1983; conditions: ref Davis and Hatoum, 1983; cited from earlier work
sodium channels = system: sodium channels; parameters: method as in Hill et al., 2014; Ghovanloo et al., 2022; conditions: different voltage protocols or model systems; ref Hill et al., 2014; Ghovanloo et al., 2022; read-out: IC50 (low affinity inhibitor of sodium channels); cited from earlier work
[12] = system: PTZ-induced acute seizure model; parameters: method as in Hill et al., 2014; conditions: ref Hill et al., 2014; cited from earlier work

T4 sequence (Q15858 whole entry): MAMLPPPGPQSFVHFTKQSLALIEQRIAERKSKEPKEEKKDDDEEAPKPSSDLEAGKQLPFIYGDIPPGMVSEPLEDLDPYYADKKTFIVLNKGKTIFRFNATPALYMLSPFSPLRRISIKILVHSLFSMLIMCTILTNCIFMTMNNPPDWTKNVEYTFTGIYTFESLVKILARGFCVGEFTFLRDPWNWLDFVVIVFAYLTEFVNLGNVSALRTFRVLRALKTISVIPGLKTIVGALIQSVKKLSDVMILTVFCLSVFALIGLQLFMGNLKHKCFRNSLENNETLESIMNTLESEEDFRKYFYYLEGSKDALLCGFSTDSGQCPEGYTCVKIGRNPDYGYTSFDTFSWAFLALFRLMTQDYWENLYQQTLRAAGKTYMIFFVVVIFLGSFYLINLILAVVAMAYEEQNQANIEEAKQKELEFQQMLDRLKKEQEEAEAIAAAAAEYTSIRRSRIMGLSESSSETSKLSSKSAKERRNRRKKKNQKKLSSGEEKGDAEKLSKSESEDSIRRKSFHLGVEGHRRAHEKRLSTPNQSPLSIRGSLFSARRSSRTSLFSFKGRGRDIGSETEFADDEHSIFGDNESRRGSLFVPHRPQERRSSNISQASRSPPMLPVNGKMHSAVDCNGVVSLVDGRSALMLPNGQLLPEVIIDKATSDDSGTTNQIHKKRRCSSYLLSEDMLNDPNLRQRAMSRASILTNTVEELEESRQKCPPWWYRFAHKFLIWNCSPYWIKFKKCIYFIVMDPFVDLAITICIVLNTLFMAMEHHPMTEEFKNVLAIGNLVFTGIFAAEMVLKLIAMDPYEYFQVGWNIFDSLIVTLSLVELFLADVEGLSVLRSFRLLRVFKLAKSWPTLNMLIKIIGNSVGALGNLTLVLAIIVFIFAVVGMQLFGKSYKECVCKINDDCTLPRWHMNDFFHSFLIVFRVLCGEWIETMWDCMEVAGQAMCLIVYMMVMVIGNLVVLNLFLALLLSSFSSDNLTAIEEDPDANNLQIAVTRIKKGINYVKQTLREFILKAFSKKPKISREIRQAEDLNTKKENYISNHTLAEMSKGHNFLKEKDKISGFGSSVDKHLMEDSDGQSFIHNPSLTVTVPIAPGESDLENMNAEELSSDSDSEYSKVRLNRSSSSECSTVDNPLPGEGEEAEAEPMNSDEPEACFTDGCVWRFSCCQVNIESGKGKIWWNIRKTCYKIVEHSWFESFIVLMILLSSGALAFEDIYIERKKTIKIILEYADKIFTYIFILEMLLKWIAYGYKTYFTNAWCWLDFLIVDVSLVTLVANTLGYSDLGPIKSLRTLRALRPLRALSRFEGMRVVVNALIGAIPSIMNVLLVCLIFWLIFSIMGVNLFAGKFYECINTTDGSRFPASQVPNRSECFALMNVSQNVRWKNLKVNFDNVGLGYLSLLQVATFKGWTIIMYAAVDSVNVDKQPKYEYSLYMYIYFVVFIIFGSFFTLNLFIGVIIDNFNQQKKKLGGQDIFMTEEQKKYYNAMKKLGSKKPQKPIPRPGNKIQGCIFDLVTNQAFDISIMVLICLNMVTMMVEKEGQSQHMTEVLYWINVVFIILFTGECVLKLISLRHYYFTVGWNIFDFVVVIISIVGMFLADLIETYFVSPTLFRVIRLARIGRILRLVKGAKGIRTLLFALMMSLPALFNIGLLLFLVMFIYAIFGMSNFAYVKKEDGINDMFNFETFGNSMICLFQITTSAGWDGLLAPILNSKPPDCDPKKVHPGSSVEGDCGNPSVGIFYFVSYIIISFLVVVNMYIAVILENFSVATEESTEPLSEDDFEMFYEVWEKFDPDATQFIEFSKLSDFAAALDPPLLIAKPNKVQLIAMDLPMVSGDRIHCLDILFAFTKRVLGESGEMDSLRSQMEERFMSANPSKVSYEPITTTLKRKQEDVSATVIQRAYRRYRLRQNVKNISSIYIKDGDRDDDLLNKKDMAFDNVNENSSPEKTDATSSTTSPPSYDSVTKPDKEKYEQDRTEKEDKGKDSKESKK
T3 sequence (Q9UQD0 whole entry): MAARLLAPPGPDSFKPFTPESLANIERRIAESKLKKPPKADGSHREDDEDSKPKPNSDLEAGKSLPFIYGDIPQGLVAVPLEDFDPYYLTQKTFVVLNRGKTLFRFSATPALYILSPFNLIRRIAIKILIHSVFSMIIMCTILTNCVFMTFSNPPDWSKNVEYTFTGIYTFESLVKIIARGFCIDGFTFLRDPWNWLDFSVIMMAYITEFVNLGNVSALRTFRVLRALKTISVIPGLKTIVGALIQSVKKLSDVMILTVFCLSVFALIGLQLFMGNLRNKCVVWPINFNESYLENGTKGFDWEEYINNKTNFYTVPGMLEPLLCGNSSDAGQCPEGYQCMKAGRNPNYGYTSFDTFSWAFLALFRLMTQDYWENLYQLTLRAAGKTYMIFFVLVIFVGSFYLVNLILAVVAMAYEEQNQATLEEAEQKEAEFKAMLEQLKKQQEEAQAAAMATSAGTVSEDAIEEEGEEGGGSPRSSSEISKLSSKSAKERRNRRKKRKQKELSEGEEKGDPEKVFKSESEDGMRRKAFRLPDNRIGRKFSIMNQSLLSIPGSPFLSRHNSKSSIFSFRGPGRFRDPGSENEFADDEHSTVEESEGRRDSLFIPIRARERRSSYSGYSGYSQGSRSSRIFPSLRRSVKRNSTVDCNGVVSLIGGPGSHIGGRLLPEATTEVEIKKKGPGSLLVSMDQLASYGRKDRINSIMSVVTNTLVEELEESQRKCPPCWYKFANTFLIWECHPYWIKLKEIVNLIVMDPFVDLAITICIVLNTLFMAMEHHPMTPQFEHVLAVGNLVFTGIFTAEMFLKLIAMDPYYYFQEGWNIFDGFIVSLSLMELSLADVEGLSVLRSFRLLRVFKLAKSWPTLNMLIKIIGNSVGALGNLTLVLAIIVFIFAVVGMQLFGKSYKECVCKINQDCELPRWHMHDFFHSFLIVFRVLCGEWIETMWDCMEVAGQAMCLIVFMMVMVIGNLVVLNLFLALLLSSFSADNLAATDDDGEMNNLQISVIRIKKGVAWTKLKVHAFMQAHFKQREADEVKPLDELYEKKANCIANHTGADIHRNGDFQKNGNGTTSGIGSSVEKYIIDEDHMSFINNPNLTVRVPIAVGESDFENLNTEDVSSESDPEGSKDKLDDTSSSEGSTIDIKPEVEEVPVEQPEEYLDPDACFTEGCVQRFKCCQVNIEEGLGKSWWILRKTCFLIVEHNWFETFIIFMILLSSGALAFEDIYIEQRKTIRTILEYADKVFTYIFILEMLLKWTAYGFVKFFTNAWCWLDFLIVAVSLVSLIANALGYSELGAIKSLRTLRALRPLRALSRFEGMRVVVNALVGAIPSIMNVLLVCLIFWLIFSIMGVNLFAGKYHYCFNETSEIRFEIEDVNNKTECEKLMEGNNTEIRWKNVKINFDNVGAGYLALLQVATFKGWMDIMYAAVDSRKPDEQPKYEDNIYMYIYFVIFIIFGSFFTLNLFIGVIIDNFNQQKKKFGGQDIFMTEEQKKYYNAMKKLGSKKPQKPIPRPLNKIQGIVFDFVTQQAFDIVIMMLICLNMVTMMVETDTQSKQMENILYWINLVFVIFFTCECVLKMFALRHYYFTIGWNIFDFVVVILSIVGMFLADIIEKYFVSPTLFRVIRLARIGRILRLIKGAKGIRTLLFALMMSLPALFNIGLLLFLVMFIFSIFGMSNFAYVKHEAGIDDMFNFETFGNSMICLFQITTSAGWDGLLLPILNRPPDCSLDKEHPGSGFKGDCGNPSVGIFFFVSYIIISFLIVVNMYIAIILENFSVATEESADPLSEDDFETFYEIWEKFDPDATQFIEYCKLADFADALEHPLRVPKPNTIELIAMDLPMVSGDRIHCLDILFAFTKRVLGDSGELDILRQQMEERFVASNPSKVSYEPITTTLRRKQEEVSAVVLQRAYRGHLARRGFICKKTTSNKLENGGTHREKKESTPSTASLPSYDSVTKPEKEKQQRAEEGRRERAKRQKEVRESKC

## C=C(C)[C@@H]1CCC(C)=C[C@H]1c1c(O)cc(CCC)c(C(=O)O)c1O [CBDVA, cannabidivarinic acid]
[1]
  Effect on peak sodium current (in words): only partially inhibited
[2]
  Effect on peak sodium current (in words): only partially inhibited
[2]; NaV1.2 peak current, 0.1–100 µM, 5 min exposure, mean ± SEM
  IC50: ≥ 60 µM
[3]; NaV1.6 concentration-response, mean ± SEM
  Slope (Hill slope coefficient): 2.1 ± 0.5
[3]; NaV1.6 peak current, 0.1–100 µM, 5 min exposure, mean ± SEM
  IC50: 24.1 ± 1.2 µM
[4]
  Effect on peak sodium current (in words): only partially inhibited
[4]; NaV1.7 peak current, 0.1–100 µM, 5 min exposure, mean ± SEM
  IC50: ≥ 60 µM
[5]; SSFI
  Inactivation △ V0.5 inact: −10.1 ± 2.3** mV
  Inactivation △ slope factor: 1.8 ± 0.3***
[5]
  Activation △ Slope factor: 1.7 ± 0.4***
  Activation △ V0.5 act: 13.0 ± 1.6**** mV
  Inactivation △ τinact SSFI at 5 mV: 0.4 ± 0.05****
[6]; SSFI
  Inactivation △ V0.5 inact: −2.3 ± 1.5 mV
  Inactivation △ slope factor: 1.0 ± 0.2***
[6]
  Activation △ Slope factor: 0.9 ± 0.2****
  Activation △ V0.5 act: 11.5 ± 1.5**** mV
  Inactivation △ τinact SSFI at 5 mV: 0.4 ± 0.06****
[7]; SSFI
  Inactivation △ V0.5 inact: −3.0 ± 1.3* mV
  Inactivation △ slope factor: 0.5 ± 0.3
[7]
  Activation △ Slope factor: 1.9 ± 0.7*
  Activation △ V0.5 act: 10.4 ± 2.9** mV
  Inactivation △ τinact SSFI at 5 mV: 0.3 ± 0.09**
[8]; SSFI
  Inactivation △ V0.5 inact: −4.1 ± 0.9*** mV
  Inactivation △ slope factor: 1.6 ± 0.3****
[8]
  Activation △ Slope factor: 0.9 ± 0.2***
  Activation △ V0.5 act: 8.7 ± 1.8*** mV
  Inactivation △ τinact SSFI at 5 mV: 0.3 ± 0.07**
[9]
  Estimated brain concentration attained at anti-convulsant doses: 5.5 µM
[10]
  Effect against hyperthermia-induced seizures: anti-convulsant properties

## CCCCCc1cc(O)c2c(c1)OC(C)(CCC=C(C)C)C=C2 (centres unmarked) [CBC, cannabichromene]
[1]
  Effect on peak sodium current (in words): modestly inhibited
[2]
  Effect on peak sodium current (in words): modestly inhibited
[3]
  Effect on peak sodium current (in words): modestly inhibited
[4]
  Effect on peak sodium current (in words): modestly inhibited
[10]
  Effect against hyperthermia-induced seizures: anti-convulsant properties
[11]
  Effect in electrically induced seizure model: ineffective

## CCCCCc1cc2c(c(O)c1C(=O)O)C=CC(C)(CCC=C(C)C)O2 (centres unmarked) [CBCA, cannabichromenic acid]
[1]
  Effect on peak sodium current (in words): modestly inhibited
[2]
  Effect on peak sodium current (in words): modestly inhibited
[3]
  Effect on peak sodium current (in words): modestly inhibited
[4]
  Effect on peak sodium current (in words): modestly inhibited
[10]
  Effect against hyperthermia-induced seizures: anti-convulsant properties

## CCCCCc1cc(O)c(C/C=C(\C)CCC=C(C)C)c(O)c1 [CBG, cannabigerol]
[1]
  Effect on peak sodium current (in words): modestly inhibited
[2]
  Effect on peak sodium current (in words): modestly inhibited
[3]
  Effect on peak sodium current (in words): modestly inhibited
[4]
  Effect on peak sodium current (in words): modestly inhibited
Sodium channels
  IC50: 2 to 22 µM
[10]
  Effect against hyperthermia-induced seizures: ineffective
[12]
  Anti-convulsant effect in PTZ-induced acute seizure model: ineffective
